ChEMBL document CHEMBL3885881, “DrugMatrix”

Species: Rattus norvegicus
Experiment: DrugMatrix - Regimen: Daily Repeat
Assay type: toxicity, organism-based, Sprague-Dawley
Design: regimen Daily Repeat, gender Male, age 6-8 weeks
Conditions: in vivo, po, route oral GAVAGE, […]; for ABSOLUTE BASOPHIL / ABSOLUTE EOSINOPHIL / ABSOLUTE LYMPHOCYTE / ABSOLUTE MONOCYTE / ABSOLUTE SEGMENTED NEUTROPHIL / BASOPHIL / EOSINOPHIL / ERYTHROCYTE COUNT / HEMATOCRIT / HEMOGLOBIN / LEUKOCYTE COUNT / LYMPHOCYTE / MEAN CORPUSCULAR HEMOGLOBIN / MEAN CORPUSCULAR HEMOGLOBIN CONCENTRATION / MEAN CORPUSCULAR VOLUME / MONOCYTE / NEUTROPHIL / NUCLEATED RED BLOOD CELLS / PLATELET COUNT: tissue Blood; for ALANINE AMINOTRANSFERASE / ALBUMIN / ALKALINE PHOSPHATASE / ASPARTATE AMINOTRANSFERASE / BLOOD UREA NITROGEN / CARBON DIOXIDE / CHLORIDE / CHOLESTEROL / CREATINE PHOSPHOKINASE / CREATININE / GLUCOSE / LACTATE DEHYDROGENASE / LIPASE / PHOSPHORUS / POTASSIUM / SODIUM / TOTAL BILIRUBIN / TOTAL PROTEIN / URIC ACID: tissue Plasma
[1] = 30 mg/kg, 120 h, dose level Low, time 5 day
[2] = 1093 mg/kg, 72 h, dose level High, time 3 day
[3] = 1093 mg/kg, 120 h, dose level High, time 5 day

CCC(C)n1ncn(-c2ccc(N3CCN(c4ccc(OCC5COC(Cn6cncn6)(c6ccc(Cl)cc6Cl)O5)cc4)CC3)cc2)c1=O (centres undefined) [ITRACONAZOLE]
ABSOLUTE BASOPHIL [1]: 0 CELLS/uL
ABSOLUTE EOSINOPHIL [1]: 154 CELLS/uL
ABSOLUTE LYMPHOCYTE [1]: 10619.33 CELLS/uL
ABSOLUTE MONOCYTE [1]: 425.67 CELLS/uL
ABSOLUTE SEGMENTED NEUTROPHIL [1]: 634.33 CELLS/uL
BASOPHIL [1]: 0%
EOSINOPHIL [1]: 1.33%
ERYTHROCYTE COUNT [1]: 5.97 x10E6/uL
HEMATOCRIT [1]: 38.27%
HEMOGLOBIN [1]: 14.43 G/DL
LEUKOCYTE COUNT [1]: 11.83 x10E3/uL
LYMPHOCYTE [1]: 89.67%
MEAN CORPUSCULAR HEMOGLOBIN [1]: 24.2 pg
MEAN CORPUSCULAR HEMOGLOBIN CONCENTRATION [1]: 37.77 G/DL
MEAN CORPUSCULAR VOLUME [1]: 64.1 fL
MONOCYTE [1]: 3.67%
NEUTROPHIL [1]: 5.33%
NUCLEATED RED BLOOD CELLS [1]: 0 /100WBC
PLATELET COUNT [1]: 1278.33 x10E3/uL
ALANINE AMINOTRANSFERASE [1]: 59.67 u/L
ALBUMIN [1]: 4.03 G/DL
ALKALINE PHOSPHATASE [1]: 472.33 u/L
ASPARTATE AMINOTRANSFERASE [1]: 77 u/L
BLOOD UREA NITROGEN [1]: 9 mg/dL
CARBON DIOXIDE [1]: 23.67 mmol/L
CHLORIDE [1]: 102.67 MEQ/L
CHOLESTEROL [1]: 50.33 mg/dL
CREATINE PHOSPHOKINASE [1]: 199.67 u/L
CREATININE [1]: 0.12 mg/dL
GLUCOSE [1]: 162.67 mg/dL
LACTATE DEHYDROGENASE [1]: 92.67 u/L
LIPASE [1]: 6.33 u/L
PHOSPHORUS [1]: 11.77 mg/dL
POTASSIUM [1]: 6.35 MEQ/L
SODIUM [1]: 142.93 MEQ/L
TOTAL BILIRUBIN [1]: 0.13 mg/dL
TOTAL PROTEIN [1]: 5.97 G/DL
URIC ACID [1]: 1.6 mg/dL
ABSOLUTE BASOPHIL [2]: 0 CELLS/uL
ABSOLUTE EOSINOPHIL [2]: 143 CELLS/uL
ABSOLUTE LYMPHOCYTE [2]: 12564.33 CELLS/uL
ABSOLUTE MONOCYTE [2]: 467.67 CELLS/uL
ABSOLUTE SEGMENTED NEUTROPHIL [2]: 825 CELLS/uL
BASOPHIL [2]: 0%
EOSINOPHIL [2]: 1%
ERYTHROCYTE COUNT [2]: 6.06 x10E6/uL
HEMATOCRIT [2]: 38.43%
HEMOGLOBIN [2]: 14.67 G/DL
LEUKOCYTE COUNT [2]: 14 x10E3/uL
LYMPHOCYTE [2]: 89.67%
MEAN CORPUSCULAR HEMOGLOBIN [2]: 24.23 pg
MEAN CORPUSCULAR HEMOGLOBIN CONCENTRATION [2]: 38.17 G/DL
MEAN CORPUSCULAR VOLUME [2]: 63.43 fL
MONOCYTE [2]: 3.33%
NEUTROPHIL [2]: 6%
NUCLEATED RED BLOOD CELLS [2]: 0 /100WBC
PLATELET COUNT [2]: 1165.33 x10E3/uL
ALANINE AMINOTRANSFERASE [2]: 57 u/L
ALBUMIN [2]: 4 G/DL
ALKALINE PHOSPHATASE [2]: 535.67 u/L
ASPARTATE AMINOTRANSFERASE [2]: 71 u/L
BLOOD UREA NITROGEN [2]: 10.67 mg/dL
CARBON DIOXIDE [2]: 22.67 mmol/L
CHLORIDE [2]: 102.33 MEQ/L
CHOLESTEROL [2]: 50.33 mg/dL
CREATINE PHOSPHOKINASE [2]: 230.33 u/L
CREATININE [2]: 0.12 mg/dL
GLUCOSE [2]: 165 mg/dL
LACTATE DEHYDROGENASE [2]: 54.33 u/L
LIPASE [2]: 9.33 u/L
PHOSPHORUS [2]: 10.63 mg/dL
POTASSIUM [2]: 6.01 MEQ/L
SODIUM [2]: 142.3 MEQ/L
TOTAL BILIRUBIN [2]: 0.17 mg/dL
TOTAL PROTEIN [2]: 5.87 G/DL
URIC ACID [2]: 1.77 mg/dL
ABSOLUTE BASOPHIL [3]: 0 CELLS/uL
ABSOLUTE EOSINOPHIL [3]: 139 CELLS/uL
ABSOLUTE LYMPHOCYTE [3]: 10102.67 CELLS/uL
ABSOLUTE MONOCYTE [3]: 609.67 CELLS/uL
ABSOLUTE SEGMENTED NEUTROPHIL [3]: 1115.33 CELLS/uL
BASOPHIL [3]: 0%
EOSINOPHIL [3]: 1%
ERYTHROCYTE COUNT [3]: 5.79 x10E6/uL
HEMATOCRIT [3]: 36.73%
HEMOGLOBIN [3]: 14.13 G/DL
LEUKOCYTE COUNT [3]: 11.97 x10E3/uL
LYMPHOCYTE [3]: 84.67%
MEAN CORPUSCULAR HEMOGLOBIN [3]: 24.4 pg
MEAN CORPUSCULAR HEMOGLOBIN CONCENTRATION [3]: 38.47 G/DL
MEAN CORPUSCULAR VOLUME [3]: 63.43 fL
MONOCYTE [3]: 5%
NEUTROPHIL [3]: 9.33%
NUCLEATED RED BLOOD CELLS [3]: 0 /100WBC
PLATELET COUNT [3]: 1189.33 x10E3/uL
ALANINE AMINOTRANSFERASE [3]: 78.67 u/L
ALBUMIN [3]: 4.17 G/DL
ALKALINE PHOSPHATASE [3]: 402 u/L
ASPARTATE AMINOTRANSFERASE [3]: 84.33 u/L
BLOOD UREA NITROGEN [3]: 10.67 mg/dL
CARBON DIOXIDE [3]: 22.33 mmol/L
CHLORIDE [3]: 103.67 MEQ/L
CHOLESTEROL [3]: 67 mg/dL
CREATINE PHOSPHOKINASE [3]: 522 u/L
CREATININE [3]: 0.21 mg/dL
GLUCOSE [3]: 181 mg/dL
LACTATE DEHYDROGENASE [3]: 126 u/L
LIPASE [3]: 17.33 u/L
PHOSPHORUS [3]: 11.7 mg/dL
POTASSIUM [3]: 5.88 MEQ/L
SODIUM [3]: 143.47 MEQ/L
TOTAL BILIRUBIN [3]: 0.13 mg/dL
TOTAL PROTEIN [3]: 5.83 G/DL
URIC ACID [3]: 2 mg/dL
